Data as given in US20020198177A1, “Coenzyme Q and EPA” (priority 2001, published 2002).

What was measured:
mantle cell lymphoma = assay: Case study: high-dose ethyl eicosapentaenoate in a patient with mantle cell lymphoma; type: in vivo, human
Text: The following example reports that cancer developed in an individual who had been taking ethyl-EPA at a regular dose of 1 g/d. This individual had also at times in the past three years taken 2 g/d EPA but still cancer developed. […] Doses of 3 g/d to 30 g/d, and preferably of 5 g/d or 20 g/d will therefore be useful in the treatment of cancer. The EPA may be provided in any assimilable form. However, the triglyceride form and the ethyl-ester form are relatively non-irritant to the gastrointestinal tract and are the preferred forms for delivering these large amounts by mouth although other forms could be used for the intravenous route of administration. The EPA for oral administration should be in the purest form possible, at least 70% pure, preferably 80-90% pure, and very preferably 95% or more pure. Docosahexaenoic acid and linoleic acid should each be present at less than 5% and preferably less than 1%. The EPA may be formulated in capsules, liquids or emulsions such as may be required to make it appropriate for either oral or intravenous administration.
A person who had been taking 1 g/d of ethyl eicosapentaenoate as a supplement for general health reasons developed a form of non-Hodgkin's lymphoma called a mantle cell lymphoma. This is characterised by an over-production of a cell cycle controlling factor known as cyclin D1. Cyclin D1 appears to force the cells to divide continually. […] However, high doses are required to achieve the necessary levels in the cancer tissue.
(§1) It was therefore decided to give the patient 10 g/d of 96% pure ethyl eicosapentaenoate containing less than 1% docosahexaenoic acid and no detectable linoleic acid.

cyclin D1 = conditions: in vitro and in animal models of cancer; cited from earlier work
cancerous cells = conditions: cited from earlier work
[1] = type: in vivo, human
Text: as §1
No certain cause of the abnormal rhythm was identified. One possibility may have been the high intake of EPA. EPA at very high doses might theoretically give rise to oxygenated metabolites which could disturb cardiac rhythm. EPA at low doses seems to be strongly anti-arrhythmic but it is known that many anti-arrhythmic drugs can have pro-arrhythmic actions at certain doses.
Ubiquinone may have favourable effects on cardiac rhythm (R B Singh et al, Cardiovascular Drugs and Therapy 1998; 12: 347-353). 120 mg/day was given to the patient taking high dose EPA. […] The ubiquinone was then stopped after ten days.

[2] = ubiquinone 120 mg/day added to high dose EPA, second day

SMILES	effect on the patient's palpable tumours (mantle cell lymphoma; 10 g/d of 96% pure ethyl eicosapentaenoate, sixth day of treatment, person)	cancer size (mantle cell lymphoma; dose of EPA increased to 10 g/day, within a matter of days)	management of cancer at low dose (mantle cell lymphoma; doses of EPA of 2 g/day or less, cancer developed on 1 g/d, at times 2 g/d)	synthesis of cyclin D1 (cyclin D1)	growth of cancerous cells (cancerous cells)	heart rate and rhythm [1, 2]	heart rate at rest [1, 2]	cardiac rate and rhythm abnormality on continued treatment ([1]; ubiquinone plus high dose of EPA over a period of four months)	heart rate and rhythm on reintroducing ubiquinone ([1]; ubiquinone reintroduced, high dose EPA continued)	heart rate and rhythm after stopping ubiquinone ([1]; ubiquinone stopped after ten days, four days after stopping, high dose EPA continued)
CC/C=C\C/C=C\C/C=C\C/C=C\C/C=C\CCCC(=O)OCC [ethyl eicosapentaenoate]	began to regress	reduced dramatically in size	likely to be ineffective	able to inhibit the synthesis of cyclin D1	could inhibit the growth of cancerous cells					
COC1=C(OC)C(=O)C(C/C=C(\C)CC/C=C(\C)CC/C=C(\C)CC/C=C(\C)CC/C=C(\C)CC/C=C(\C)CC/C=C(\C)CC/C=C(\C)CC/C=C(\C)CCC=C(C)C)=C(C)C1=O [ubiquinone]						returned to normal	65 to 75 min⁻¹	no return of the cardiac rate and rhythm abnormality	normal rate and rhythm came back	variability of rate and rhythm returned
